Laboratory results reported in article PMC8537901, “Progesterone Metabolism by Human and Rat Hepatic and Intestinal Tissue” (Pharmaceutics, 2021).

Assays:
[1] = Human cytosol stability assay, liver cytosol; settings: for effect of inhibitor on rate of progesterone depletion: presence of NADPH, inhibitor 100 µM; for half-life at 1 µM: human, t1/2 (min)
Method: (§3) Progesterone stability was assessed in intestinal and liver cytosol in the presence or absence of NADPH cofactor and specific enzyme inhibitors. For both intestinal and liver cytosol, the protein concentration was adjusted to 0.5 mg/mL. Both human liver and intestinal cytosol (with 0.1 mM EDTA) were then pre-incubated for 10 min in a thermomixer comfort by Eppendorf in an RNAse/DNAse 96-well plate until reaching a temperature of 37 °C. Next, a final concentration of 100 µM of enzyme inhibitors were added to the cytosol. […] The enzyme inhibitors used during this study were: Epalrestat (AKR1B1 inhibitor), Diazepam (AKR1C inhibitor), Finasteride (AKR1D1 inhibitor), Diazepam + Flufenamic Acid (AKR1C inhibitor cocktail), Menadione (aldehyde oxidase inhibitor) and Allopurinol (xanthine oxidase inhibitor).
(§4) Next, the mixtures were incubated for an additional 5 min, and NADPH was added at a final concentration of 1 mM. Finally, progesterone (1 µM) was added and mixed by pipetting to initiate the reaction. Immediately following reaction initiation, a 50 µL sample was taken. The sample was then diluted in 100 µL of acetonitrile to terminate enzymatic reaction. Samples were centrifuged at 4 °C and 2500 rpm for 30 min. Following centrifugation, the supernatant was removed and diluted 1:1 with milli-Q water. […] This process was followed for sampling at all required time intervals.
(§5) Liquid chromatography with tandem mass spectrometry (LC MS/MS) was used to analyse samples obtained from both cytosol and homogenate stability assays (see Appendix A Figure A1 for example spectra). […] The column used was Aquity HSS T3 (1.8 µm) 2.1 × 50 mm (Water Ltd., Herts, UK), and the samples were run with an injection volume of 8 µL at 70 °C. A solvent system and gradient with a flow rate of 600 µL/minute was used to perform this analysis. The mobile phase consisted of 10 mM ammonium formate with 0.1% v/v formic acid in water (A) and acetonitrile (B).
(§6) The percent of substrate present at each timepoint relative to the 0 min sample was calculated from the LC-MS/MS peak area ratios (compound peak area/internal standard peak area). […] The Kolmogorov–Smirnov test was used to assess normality followed by Student’s t-test. Results were considered statistically significant when p < 0.05.

[2] = Tissue homogenate stability assay, human liver homogenate; assay type: in vitro ADME; settings: for half-life: human, liver homogenate
Method: (§1) Progesterone stability was determined in rat and human intestinal mucosa and liver homogenates. In addition, progesterone was incubated in stock solution containing phosphate-buffered saline, 0.1% Tween80 and 1% DMSO. […] Stability assays were carried out either in the presence or absence of 1mM of the cofactor NADPH. The physiological concentration of NADPH was approximately 100 µM [26]. However, for the purpose of this research, a concentration of 1 mM was used to ensure an excess of co-factor was available and not rate-limited throughout the incubation period.
(§2) The protein concentration for the rat and human liver and intestinal homogenates was adjusted to 5 mg/mL. […] A final concentration of 1 µM progesterone and 1 mM NADPH (where required) was added to the homogenate, and samples were immediately taken (t–0). Next, the homogenate solution was incubated with shaking (700 rpm) at 37 °C, and further samples were taken at timed intervals. To stop the enzymatic reaction, samples were immediately diluted in ice-cold acetonitrile at a ratio of 1:3 sample:acetonitrile. The samples were then centrifuged at 3000 rpm for 30 min to pellet the homogenates.

[3] = Tissue homogenate stability assay, rat liver homogenate; assay type: in vitro ADME; settings: for half-life: Sprague Dawley, rat
Method: as §1, §2

[4] = Tissue homogenate stability assay, human intestinal homogenate; assay type: in vitro ADME; settings: for half-life: human
Method: as §1, §2

[5] = Tissue homogenate stability assay, rat intestinal homogenate; assay type: in vitro ADME; settings: for half-life: Sprague Dawley, rat
Method: as §1, §2

[6] = Stability in control media (phosphate-buffered saline, 0.1% Tween80, 1% DMSO, pH 7.4); assay type: physicochemical
Method: as §1

[7] = Human cytosol stability assay, intestinal cytosol; settings: for half-life at 1 µM: human, human intestinal cytosol, t1/2 (min)
Method: as §3, §4, §5, §6

[8] = human liver homogenate, no NADPH
[9] = rat liver homogenate + 1 mM NADPH
[10] = human intestinal homogenate + 1 mM NADPH
[11] = human intestinal homogenate, no NADPH
[12] = rat intestinal homogenate + 1 mM NADPH
[13] = human liver cytosol + NADPH + AKR1B1 inhibitor (Epalrestat 100 µM)
[14] = human liver cytosol + NADPH + AKR1C1 cocktail (Diazepam + Flufenamic Acid)
[15] = human liver cytosol + NADPH, no inhibitor
[16] = human intestinal cytosol + NADPH + AKR1B inhibitor (Epalrestat 100 µM)
[17] = human intestinal cytosol + NADPH, no inhibitor

CC1=CC(=O)c2ccccc2C1=O [Menadione]
effect of inhibitor on rate of progesterone depletion ([1]; human liver cytosol): not deemed significant

CC(=O)[C@H]1CC[C@H]2[C@@H]3CCC4=CC(=O)CC[C@]4(C)[C@H]3CC[C@]12C [Progesterone]
% Drug Remaining After 60 min ([2]; human liver homogenate + 1 mM NADPH): 0.27 ± 0.26%
% of original concentration remaining ([2]; human liver homogenate + NADPH, within 10 min of incubation): less than 2%
% of the drug remaining ([2]; human liver homogenate, absence of NADPH, after two hours of incubation): over 40%
% Drug Remaining After 60 min [2, 8]: 43.32 ± 4.84%
half-life ([2]; human liver homogenate + 1 mM NADPH, 1 µM progesterone, 5 mg/mL protein, 37 °C): 0.045 ± 0.000833 h
half-life [2, 8]: 0.649 ± 0.195 h
half-life ([3]; liver homogenate, pH 7.4, rat liver homogenate, no NADPH): 0.663 ± 0.169 h
half-life ([3]; rat liver homogenate, pH 7.4, rat liver homogenate + 1 mM NADPH): 0.045 h
t1/2 [3, 9]: 2.72 ± 0.05 min
% Drug Remaining After 60 min [3, 9]: 0.03 ± 0.0005%
% of original concentration remaining ([3]; rat liver homogenate + NADPH, within 10 min of incubation): less than 2%
% of the drug remaining ([3]; rat liver homogenate, absence of NADPH, after two hours of incubation): over 40%
% Drug Remaining After 60 min ([3]; rat liver homogenate, no NADPH): 46.04 ± 0.69%
t1/2 [4, 10]: 2.6203 ± 0.4568 h
% Drug Remaining After 60 min [4, 10]: 73.92 ± 5.11%
% Drug Remaining After 60 min ([4]; human intestinal homogenate + 1 mM NADPH, listed as progesterone): 74%
% Drug Remaining After 60 min [4, 11]: 75.82 ± 9.35%
% Drug Remaining After 60 min ([4]; human intestinal homogenate, no NADPH, listed as progesterone): 76%
half-life ([4]; human intestinal homogenate, human intestinal homogenate + 1 mM NADPH): 2.62 h
half-life [4, 11]: 2.6 ± 0.229 h
half-life ([5]; rat intestinal homogenate, pH 7.4, rat intestinal homogenate + 1 mM NADPH): 3.29 h
half-life ([5]; rat intestinal homogenate, pH 7.4, rat intestinal homogenate, no NADPH): 5.87 ± 0.614 h
t1/2 [5, 12]: 3.2938 ± 0.0485 h
% Drug Remaining After 60 min [5, 12]: 76.67 ± 4.72%
% Drug Remaining After 60 min ([5]; rat intestinal homogenate + 1 mM NADPH, listed as progesterone): 77%
% Drug Remaining After 60 min ([5]; rat intestinal homogenate, no NADPH): 90.93 ± 2.19%
% Drug Remaining After 60 min ([5]; rat intestinal homogenate, no NADPH, listed as progesterone): over 90%
% detectable in control media ([6]; after 2 h in control media): 99%
time stable in stock solution ([6]; phosphate-buffered saline, 0.1% Tween80, 1% DMSO, pH 7.4, 1 µM): up to 6 h
t1/2 [1, 13]: 0.3135 ± 0.016 h
% Drug Remaining After 60 min [1, 13]: 6.6 ± 6.24%
t1/2 [1, 14]: 0.5927 ± 0.111 h
% Drug Remaining After 60 min [1, 14]: 33.5 ± 1.72%
% Drug Remaining After 60 min ([1]; human liver cytosol + NADPH + AKR1C1 inhibitor (Diazepam 100 µM)): 0.11 ± 0.04%
% Drug Remaining After 60 min ([1]; human liver cytosol + NADPH + AKR1D1 inhibitor (Finasteride 100 µM)): 7.85 ± 6.31%
% Drug Remaining After 60 min ([1]; human liver cytosol + NADPH + AOX inhibitor (Menadione 100 µM)): 0.97 ± 0.88%
t1/2 [1, 15]: 0.2288 ± 0.0135 h
% Drug Remaining After 60 min [1, 15]: 0.04 ± 0.01%
% Drug Remaining After 60 min ([1]; human liver cytosol, absence of NADPH, + AOX inhibitor (Menadione 100 µM)): 69.14 ± 2.91%
% Drug Remaining After 60 min ([1]; human liver cytosol, absence of NADPH, + XAO inhibitor (Allopurinol 100 µM)): 57.09 ± 2.01%
half-life at 1 µM ([1]; human liver cytosol, human liver cytosol + NADPH + AKR1C1 cocktail (Diazepam + Flufenamic Acid)): 0.593 h
half-life at 1 µM ([1]; human liver cytosol, human liver cytosol + NADPH, no inhibitor): 0.217 h
half-life at 1 µM ([1]; human liver cytosol, liver cytosol section (Figure 4), absence of NADPH, no inhibitor, line printed as Human intestinal Cytosol): 1.72 ± 0.156 h
half-life at 1 µM ([1]; human liver cytosol, with Allopurinol (xanthine oxidase inhibitor), 100 µM, human liver cytosol, absence of NADPH, + XAO inhibitor (Allopurinol 100 µM)): 1.66 ± 0.152 h
half-life at 1 µM ([1]; human liver cytosol, with Diazepam (AKR1C1 inhibitor), 100 µM, human liver cytosol + NADPH + AKR1C1 inhibitor (Diazepam 100 µM)): 0.235 ± 0.004 h
half-life at 1 µM ([1]; human liver cytosol, with Epalrestat (AKR1B1 inhibitor), 100 µM, human liver cytosol + NADPH + AKR1B1 inhibitor (Epalrestat 100 µM)): 0.3 h
half-life at 1 µM ([1]; human liver cytosol, with Finasteride (AKR1D1 inhibitor), 100 µM, human liver cytosol + NADPH + AKR1D1 inhibitor (Finasteride 100 µM)): 0.308 ± 0.0283 h
half-life at 1 µM ([1]; human liver cytosol, with Menadione (aldehyde oxidase inhibitor), 100 µM, human liver cytosol, absence of NADPH, + AOX inhibitor (Menadione 100 µM)): 2.21 ± 0.0782 h
half-life at 1 µM ([1]; liver cytosol, with Menadione 100 µM (aldehyde oxidase inhibitor), human liver cytosol + NADPH + AOX inhibitor (Menadione 100 µM)): 0.258 ± 0.0338 h
% Drug Remaining After 60 min ([1]; liver cytosol section (Figure 4), absence of NADPH, no inhibitor, line printed as Human intestinal Cytosol): 56.6 ± 2.07%
t1/2 [7, 16]: 3.0687 ± 0.3158 h
% Drug Remaining After 60 min [7, 16]: 80.87 ± 7.84%
% Drug Remaining After 60 min ([7]; human intestinal cytosol + NADPH + AKR1C1 inhibitor (Diazepam 100 µM)): 77.38 ± 6.37%
% Drug Remaining After 60 min ([7]; human intestinal cytosol + NADPH + AKR1C cocktail (Diazepam + Flufenamic Acid)): 73.56 ± 3.69%
% Drug Remaining After 60 min ([7]; human intestinal cytosol + NADPH + AKR1D1 inhibitor (Finasteride 100 µM)): 79.56 ± 4.44%
t1/2 [7, 17]: 2.1587 ± 0.0458 h
% Drug Remaining After 60 min [7, 17]: 72.51 ± 6.48%
half-life at 1 µM [7, 17]: 2.16 h
half-life at 1 µM ([7]; with Epalrestat (AKR1B inhibitor), 100 µM, human intestinal cytosol + NADPH + AKR1B inhibitor (Epalrestat 100 µM)): 3.07 h
half-life at 1 µM ([7]; with Finasteride (AKR1D1 inhibitor), 100 µM, human intestinal cytosol + NADPH + AKR1D1 inhibitor (Finasteride 100 µM)): 3.03 ± 0.0732 h

CN1C(=O)CN=C(c2ccccc2)c2cc(Cl)ccc21 [diazepam, Diazepam]
effect of inhibitor on rate of progesterone depletion ([1]; human liver cytosol): no significant difference
